Where “and” joins values, the source holds several entries; their conditions need not be identical. Equal entries are not always repeated. Entries after “also recorded” stand apart in the source; their conditions may differ.
Test system: RPE1 cells
Assay: Cell growth assay (IncuCyte confluence over 72 h)
Format: cell-based
Conditions: for effect on cell growth (confluence): RPE1, 72 h
Experimental: Cell growth assay: Cell confluence (phase) from RPE1 (hTERT RPE-1, ATCC CLR_4000) or U2OS (ATCC, HTB-96) cell lines were monitored over time with the IncuCyte S3 (Sartiorius, Germany) in 384-well plates in 50 ul DMEM media, supplemented with 10% Fetal Bovine Serum (FBS) 1% penicillin/Streptomycin and incubated 24 h before treatment. Experiment was performed as described in Cano-Franco et al.. 50 μl of media containing either 2× final concentration of indicated compounds in or control compounds (final conc.: 0.1% DMSO, 250 nM Torin1, 200 ng/mL Bafilomycin) were added and images were taken every two hours over 72 h. Cell confluence is represented as % of area covered by cells. Each data point represents the average ratio or confluence obtained from three individual wells of the plate.

O=C1Nc2ccc(Br)cc2C1=Cc1cc(O)c(O)c(Br)c1 [compound 1]
RPE1 cell growth (100 nM, 10 h, listed as AN1): 30 and 17 and 26 | RPE1 cell growth (100 nM, 12 h, listed as AN1): 33 and 18 and 27 | RPE1 cell growth (100 nM, 14 h, listed as AN1): 37 and 19 and 27 | RPE1 cell growth (100 nM, 16 h, listed as AN1): 37 and 22 and 30 | RPE1 cell growth (100 nM, 18 h, listed as AN1): 41 and 22 and 30 | RPE1 cell growth (100 nM, 20 h, listed as AN1): 42 and 22 | RPE1 cell growth (500 nM, 10 h, listed as AN1): 40 and 23 and 25 | RPE1 cell growth (500 nM, 12 h, listed as AN1): 43 and 24 and 26 | RPE1 cell growth (500 nM, 14 h, listed as AN1): 44 and 25 and 28 | RPE1 cell growth (500 nM, 16 h, listed as AN1): 47 and 29 and 30 | RPE1 cell growth (500 nM, 18 h, listed as AN1): 49 and 29 and 32 | RPE1 cell growth (1 uM, 10 h, listed as AN1): 23 and 42 and 25 | RPE1 cell growth (1 uM, 12 h, listed as AN1): 25 and 45 and 28 | RPE1 cell growth (1 uM, 14 h, listed as AN1): 26 and 48 and 29 | RPE1 cell growth (1 uM, 16 h, listed as AN1): 29 and 49 and 32 | RPE1 cell growth (1 uM, 18 h, listed as AN1): 30 and 50 and 34 | RPE1 cell growth (1 uM, 20 h, listed as AN1): 32 | RPE1 cell growth (3 uM, 10 h, listed as AN1): 43 and 32 and 29 | RPE1 cell growth (3 uM, 12 h, listed as AN1): 45 and 37 and 31 | RPE1 cell growth (3 uM, 14 h, listed as AN1): 48 and 37 and 32 | RPE1 cell growth (3 uM, 16 h, listed as AN1): 50 and 39 and 35 | RPE1 cell growth (3 uM, 18 h, listed as AN1): 53 and 40 and 36 | RPE1 cell growth (3 uM, 20 h, listed as AN1): 52 and 41 and 37 | RPE1 cell growth (5 uM, 10 h, listed as AN1): 47 and 35 | RPE1 cell growth (5 uM, 12 h, listed as AN1): 49 and 38 | RPE1 cell growth (5 uM, 14 h, listed as AN1): 53 and 38 and 42 | RPE1 cell growth (5 uM, 16 h, listed as AN1): 55 and 41 and 44 | RPE1 cell growth (5 uM, 18 h, listed as AN1): 57 and 42 and 46 | RPE1 cell growth (5 uM, 20 h, listed as AN1): 56 and 45 and 49 | RPE1 cell growth (10 uM, 10 h, listed as AN1): 47 and 35 and 32 | RPE1 cell growth (10 uM, 12 h, listed as AN1): 51 and 37 and 33 | RPE1 cell growth (10 uM, 14 h, listed as AN1): 53 and 39 and 36 | RPE1 cell growth (10 uM, 16 h, listed as AN1): 55 and 43 and 35 | RPE1 cell growth (10 uM, 18 h, listed as AN1): 56 and 38 and 37 | RPE1 cell growth (10 uM, 20 h, listed as AN1): 54 and 41 and 38 | effect on cell growth (confluence): high dosage effects

O=c1cc(-c2ccccc2)c2c(O)cc(O)cc2o1 [compound 2]
RPE1 cell growth (100 nM, 0 h, listed as AN2): 20 and 12 and 15 | RPE1 cell growth (100 nM, 2 h, listed as AN2): 24 and 13 and 16 | RPE1 cell growth (100 nM, 4 h, listed as AN2): 26 and 14 and 18 | RPE1 cell growth (100 nM, 6 h, listed as AN2): 28 and 15 and 18 | RPE1 cell growth (100 nM, 8 h, listed as AN2): 30 and 15 and 19 | RPE1 cell growth (100 nM, 10 h, listed as AN2): 32 and 17 | RPE1 cell growth (500 nM, 0 h, listed as AN2): 22 and 20 | RPE1 cell growth (500 nM, 2 h, listed as AN2): 27 and 18 and 21 | RPE1 cell growth (500 nM, 4 h, listed as AN2): 29 and 19 and 24 | RPE1 cell growth (500 nM, 6 h, listed as AN2): 32 and 20 and 24 | RPE1 cell growth (500 nM, 8 h, listed as AN2): 35 and 21 and 25 | RPE1 cell growth (1 uM, 0 h, listed as AN2): 17 and 22 and 23 | RPE1 cell growth (1 uM, 2 h, listed as AN2): 19 and 26 and 23 | RPE1 cell growth (1 uM, 4 h, listed as AN2): 22 and 28 and 26 | RPE1 cell growth (1 uM, 6 h, listed as AN2): 22 and 31 and 24 | RPE1 cell growth (1 uM, 8 h, listed as AN2): 24 and 34 and 27 | RPE1 cell growth (1 uM, 10 h, listed as AN2): 25 | RPE1 cell growth (3 uM, 0 h, listed as AN2): 24 and 21 and 19 | RPE1 cell growth (3 uM, 2 h, listed as AN2): 30 and 22 and 21 | RPE1 cell growth (3 uM, 4 h, listed as AN2): 32 and 21 and 24 | RPE1 cell growth (3 uM, 6 h, listed as AN2): 36 and 22 and 26 | RPE1 cell growth (3 uM, 8 h, listed as AN2): 39 and 24 and 26 | RPE1 cell growth (3 uM, 10 h, listed as AN2): 39 and 27 and 28 | RPE1 cell growth (5 uM, 0 h, listed as AN2): 22 and 21 | RPE1 cell growth (5 uM, 2 h, listed as AN2): 28 and 21 and 24 | RPE1 cell growth (5 uM, 4 h, listed as AN2): 32 and 22 and 27 | RPE1 cell growth (5 uM, 6 h, listed as AN2): 35 and 24 and 29 | RPE1 cell growth (5 uM, 8 h, listed as AN2): 37 and 24 and 30 | RPE1 cell growth (5 uM, 10 h, listed as AN2): 38 and 26 and 32 | RPE1 cell growth (10 uM, 0 h, listed as AN2): 27 and 24 and 19 | RPE1 cell growth (10 uM, 2 h, listed as AN2): 31 and 27 and 22 | RPE1 cell growth (10 uM, 4 h, listed as AN2): 34 and 26 and 24 | RPE1 cell growth (10 uM, 6 h, listed as AN2): 37 and 25 and 26 | RPE1 cell growth (10 uM, 8 h, listed as AN2): 40 and 29 and 27 | RPE1 cell growth (10 uM, 10 h, listed as AN2): 42 and 31 and 30

Cc1ccc(C(=O)N(CCCN)[C@@H](c2nc3cc(Cl)ccc3c(=O)n2Cc2ccccc2)C(C)C)cc1 [compound 3, (R)-N-(3-aminopropyl)-N-(1-(3-benzyl-7-chloro-4-oxo-3,4-dihydroquinazolin-2-yl)−2-methylpropyl)−4-methylbenzamide]
RPE1 cell growth (500 nM, 34 h, listed as 8F20): 24 and 12 and 17 | RPE1 cell growth (500 nM, 36 h, listed as 8F20): 23 and 14 and 18 | RPE1 cell growth (500 nM, 38 h, listed as 8F20): 23 and 14 and 19 | RPE1 cell growth (500 nM, 40 h, listed as 8F20): 11 and 16 and 21 | RPE1 cell growth (500 nM, 42 h, listed as 8F20): 27 and 16 and 23 | RPE1 cell growth (500 nM, 44 h, listed as 8F20): 29 and 17 and 23 | RPE1 cell growth (500 nM, 46 h, listed as 8F20): 31 and 17 and 24 | RPE1 cell growth (500 nM, 48 h, listed as 8F20): 32 and 17 and 25 | RPE1 cell growth (500 nM, 54 h, listed as 8F20): 33 and 17 and 28 | RPE1 cell growth (1 uM, 34 h, listed as 8F20): 15 and 25 and 13 | RPE1 cell growth (1 uM, 36 h, listed as 8F20): 17 and 25 and 14 | RPE1 cell growth (1 uM, 38 h, listed as 8F20): 17 and 24 and 15 | RPE1 cell growth (1 uM, 40 h, listed as 8F20): 18 and 20 and 17 | RPE1 cell growth (1 uM, 42 h, listed as 8F20): 22 and 27 and 16 | RPE1 cell growth (1 uM, 44 h, listed as 8F20): 22 and 28 and 18 | RPE1 cell growth (1 uM, 46 h, listed as 8F20): 22 and 28 and 17 | RPE1 cell growth (1 uM, 48 h, listed as 8F20): 25 and 32 and 18 | RPE1 cell growth (1 uM, 50 h, listed as 8F20): 24 and 32 and 20 | RPE1 cell growth (1 uM, 54 h, listed as 8F20): 29 and 33 and 21 | RPE1 cell growth (1 uM, 56 h, listed as 8F20): 28 and 34 and 21 | RPE1 cell growth (1 uM, 58 h, listed as 8F20): 30 | RPE1 cell growth (3 uM, 34 h, listed as 8F20): 25 and 15 and 17 | RPE1 cell growth (3 uM, 36 h, listed as 8F20): 25 and 16 and 18 | RPE1 cell growth (3 uM, 38 h, listed as 8F20): 26 and 17 and 18 | RPE1 cell growth (3 uM, 40 h, listed as 8F20): 23 and 18 and 19 | RPE1 cell growth (3 uM, 42 h, listed as 8F20): 29 and 18 and 23 | RPE1 cell growth (3 uM, 44 h, listed as 8F20): 28 and 20 and 21 | RPE1 cell growth (3 uM, 46 h, listed as 8F20): 31 and 19 and 22 | RPE1 cell growth (3 uM, 48 h, listed as 8F20): 31 and 19 and 23 | RPE1 cell growth (3 uM, 50 h, listed as 8F20): 31 and 20 and 23 | RPE1 cell growth (3 uM, 52 h, listed as 8F20): 25 and 22 and 24 | RPE1 cell growth (3 uM, 54 h, listed as 8F20): 31 and 21 and 25 | RPE1 cell growth (3 uM, 56 h, listed as 8F20): 34 and 19 and 25 | RPE1 cell growth (5 uM, 40 h, listed as 8F20): 27 and 15 and 24 | effect on cell growth (confluence): significant growth reduction; also recorded: strongly suppressed cellular growth
